Reference: article PMC8284453 (Antimicrobial Agents and Chemotherapy, 2021)
Values after ≈ are worked out from the molar mass of the structure shown. Like-named read-outs stand apart in the source and are kept apart here.

Key:
[1] = tested on: K. pneumoniae UNT-023 expressing KPC, TEM-1, and SHV-11; assay: animal or person; format: in vivo; details: Klebsiella pneumoniae, in Mus musculus, 1 h
[2] = tested on: K. pneumoniae ATCC BAA-2814 expressing KPC-3, SHV-11, and TEM; details: approved QC range; ref CLSI AST Subcommittee, February 2021; cited from earlier work
[3] = tested on: K. pneumoniae ATCC BAA-1705 expressing KPC-2, SHV, and TEM; details: approved QC range; ref CLSI AST Subcommittee, February 2021; cited from earlier work
K. pneumoniae 1266420 = assay: Impact of pH and human urine on MIC; format: cell-based; details: Klebsiella pneumoniae
Protocol: (§1) Studies were conducted by IHMA, Schaumberg, IL. […] MICs were determined by broth […] methodology ([30], [31]). […] Antibacterial panels containing 100 μl of antibacterial solution were inoculated with the adjusted inocula using 95-prong inoculator sets. Test panels were read visually after incubation following CLSI guidelines for each organism. MIC values corresponded to the first well with no visible growth.

[4] = tested on: K. pneumoniae ATCC 700603; assay: Impact of pH and human urine on MIC; format: cell-based; details: Klebsiella pneumoniae, ATCC700603, read-out: Median or modal MIC
Protocol: as §1

E. coli 1480076 = assay: Impact of pH and human urine on MIC; format: cell-based
Protocol: as §1

[5] = tested on: K. pneumoniae ATCC BAA-1705; assay: Impact of pH and human urine on MIC; format: cell-based; details: Klebsiella pneumoniae, ATCCBAA1705, read-out: Median or modal MIC
Protocol: as §1

K. pneumoniae 1434760 = assay: Impact of pH and human urine on MIC; format: cell-based
Protocol: as §1

E. coli ATCC 25922 = assay: Impact of pH and human urine on MIC; format: cell-based; details: Escherichia coli, ATCC25922, read-out: Median or modal MIC
Protocol: as §1

[6] = tested on: 1,066 clinical urinary tract infection isolates resistant to both amoxicillin-clavulanic acid and levofloxacin; details: VNRX-5236 fixed at 4 μg/ml in the combination; cited from earlier work
[7] = tested on: E. coli NCTC 13353 expressing CTX-M-15; details: approved QC range; ref CLSI AST Subcommittee, February 2021; cited from earlier work
[8] = tested on: strains utilized in time-kill studies; assay: MIC summary across strains utilized in time-kill studies; format: cell-based, E. coli, E. cloacae, K. pneumoniae; details: across all four strains
[9] = in vivo, cited from earlier work
[10] = cited from earlier work
[11] = tested on: K. pneumoniae UNT-023 expressing KPC, TEM-1, and SHV-11; assay: microbe, parasite or virus in culture; format: cell-based; details: Klebsiella pneumoniae
[12] = tested on: strains of Enterobacterales expressing serine β-lactamases; assay: organism not typed; format: cell-based

SMILES: Nc1nc(/C(=C/CC(=O)O)C(=O)N[C@@H]2C(=O)N3C(C(=O)O)=CCS[C@H]23)cs1 [CTB, ceftibuten]
- ED50 [1]: > 128 mg/kg
- QC range (MIC) [2]: 8 to 32 µg/mL
- QC range (MIC) [3]: 4 to 32 µg/mL
- MIC (K. pneumoniae 1266420; Human urine, pH 6, read-out: Median or modal MIC): 64 µg/mL (≈ 156 µM)
- MIC (K. pneumoniae 1266420; Human urine, pH 7.2, read-out: Median or modal MIC): 16 µg/mL (≈ 39 µM)
- MIC (K. pneumoniae 1266420; MHII broth, read-out: Median or modal MIC): 32 µg/mL (≈ 78 µM)
- MIC ([4]; Human urine, pH 6): 1 µg/mL (≈ 2.44 µM)
- MIC ([4]; Human urine, pH 7.2): 0.5 µg/mL (≈ 1.22 µM)
- MIC ([4]; MHII broth): 0.5 µg/mL (≈ 1.22 µM)
- MIC (E. coli 1480076; Escherichia coli, 1480076, read-out: Median or modal MIC): 128 µg/mL (≈ 312 µM)
- MIC (E. coli 1480076; Escherichia coli, 1480076, Human urine, pH 6, read-out: Median or modal MIC): 32 µg/mL (≈ 78 µM)
- MIC (E. coli 1480076; Escherichia coli, 1480076, Human urine, pH 7.2, read-out: Median or modal MIC): 32 µg/mL (≈ 78 µM)
- MIC ([5]; Human urine, pH 6): 2 µg/mL (≈ 4.87 µM)
- MIC ([5]; Human urine, pH 7.2): 2 µg/mL (≈ 4.87 µM)
- MIC ([5]; MHII broth): 8 µg/mL (≈ 19.5 µM)
- MIC (K. pneumoniae 1434760; Klebsiella pneumoniae, 1434760, pH 6, read-out: Median or modal MIC): > 128 µg/mL
- MIC (K. pneumoniae 1434760; Klebsiella pneumoniae, 1434760, pH 7.2, read-out: Median or modal MIC): 128 µg/mL (≈ 312 µM)
- MIC (K. pneumoniae 1434760; Klebsiella pneumoniae, 1434760, read-out: Median or modal MIC): > 128 µg/mL
- MIC (E. coli ATCC 25922; Human urine, pH 6): 0.25 µg/mL (≈ 0.609 µM)
- MIC (E. coli ATCC 25922; Human urine, pH 7.2): 0.12 µg/mL (≈ 0.292 µM)
- MIC (E. coli ATCC 25922; MHII broth): 0.25 µg/mL (≈ 0.609 µM)
- MIC90 [6]: > 32 µg/mL
- QC range (MIC) [7]: 16 to 64 µg/mL
- MIC range [8]: 16 to 128 µg/mL
- oral bioavailability ([9]; po): ~65%
- plasma half-life [9]: ~2.4 h
- renal excretion [9]: ~56%
- human plasma protein binding [10]: ~60%
- MIC [11]: 64 µg/mL (≈ 156 µM)
- MIC50 [12]: 0.12 µg/mL (≈ 0.292 µM)
- MIC90 [12]: 1 µg/mL (≈ 2.44 µM)
